Test results published in patent US10470445B2, “Fumarylacetoacetate hydrolase (Fah)-deficient and immunodeficient rats and uses thereof” (YECURIS CORPORATION, priority 2011, dated 2019).

Tested on: Nude (RNU) rats
Assay: FK506 immunosuppression of nude rats transplanted with human hepatocytes, body size
Assay type: in vivo, rat
Conditions: 2 mg/kg/day FK506, four weeks after hepatocyte injection
Description: Forty nude rat pups (2 weeks old) were obtained from Charles River and acclimated for a week before the study began. The rats were assigned to + or −immunosuppressive groups, with controls in each group (see Table 3 below). Rats assigned to the +immunosuppressive group were treated with 2 mg/kg/day subcutaneous doses of FK506 (Tacrolimus) throughout the study, with the initial dosage being 20 μl of 5 mg/mL FK506 ([…]) per day, based upon an average initial animal weight of 50 g at the start of the study. The −immunosuppression rats were not treated with FK506, but were injected subcutaneously with the same volume of saline throughout the study. All of the rats were then given an intravenous injection (retroorbital) of uPA adenovirus (2.5×10^9 plaque forming units (PFU) per 50 g rat) 48-96 hours before hepatocyte injection.
Two weeks after study commencement, the dose of FK506 was increased to 30 μl of 5 mg/mL due to an increase in animal weight. Four weeks after study commencement, the dose of FK506 was again increased to 25 μl of 10 mg/mL to account for growth of the rats.
Four weeks after hepatocyte injection (˜5 weeks after study commencement), at least 50 μl of whole blood was collected from the rats and allowed to clot for 1 hour at room temperature. Serum was collected by centrifuging the whole blood at 1,500 rpm×15 minutes. […]

C=CC[C@@H]1/C=C(\C)C[C@H](C)C[C@H](OC)[C@H]2O[C@@](O)(C(=O)C(=O)N3CCCC[C@H]3C(=O)O[C@H](/C(C)=C/[C@@H]3CC[C@@H](O)[C@H](OC)C3)[C@H](C)[C@@H](O)CC1=O)[C@H](C)C[C@@H]2OC [FK506]
body size on reweighing versus non-treated rats: significantly smaller than their non-treated counterparts
